Data on four molecules can be found in US12448389B2, “BRM targeting compounds and associated methods of use” (Prelude Therapeutics Incorporated, priority 2020, dated 2025).

Experiment [1] relates to SMARCA4 mutated cancer cells. The settings on record: SMARCA2/4 bromodomain inhibitor; Vangamudi et al. Cancer Res 2015; cited from earlier work.
In experiment [2] the target is T1, SMARCA2 (Homo sapiens, UniProt P51531).
T1 construct: endogenous in cells; host or cells: NCI-H520 (given as NCIH520 / NCIH1520 / H520)
T1 sequence (P51531 whole entry): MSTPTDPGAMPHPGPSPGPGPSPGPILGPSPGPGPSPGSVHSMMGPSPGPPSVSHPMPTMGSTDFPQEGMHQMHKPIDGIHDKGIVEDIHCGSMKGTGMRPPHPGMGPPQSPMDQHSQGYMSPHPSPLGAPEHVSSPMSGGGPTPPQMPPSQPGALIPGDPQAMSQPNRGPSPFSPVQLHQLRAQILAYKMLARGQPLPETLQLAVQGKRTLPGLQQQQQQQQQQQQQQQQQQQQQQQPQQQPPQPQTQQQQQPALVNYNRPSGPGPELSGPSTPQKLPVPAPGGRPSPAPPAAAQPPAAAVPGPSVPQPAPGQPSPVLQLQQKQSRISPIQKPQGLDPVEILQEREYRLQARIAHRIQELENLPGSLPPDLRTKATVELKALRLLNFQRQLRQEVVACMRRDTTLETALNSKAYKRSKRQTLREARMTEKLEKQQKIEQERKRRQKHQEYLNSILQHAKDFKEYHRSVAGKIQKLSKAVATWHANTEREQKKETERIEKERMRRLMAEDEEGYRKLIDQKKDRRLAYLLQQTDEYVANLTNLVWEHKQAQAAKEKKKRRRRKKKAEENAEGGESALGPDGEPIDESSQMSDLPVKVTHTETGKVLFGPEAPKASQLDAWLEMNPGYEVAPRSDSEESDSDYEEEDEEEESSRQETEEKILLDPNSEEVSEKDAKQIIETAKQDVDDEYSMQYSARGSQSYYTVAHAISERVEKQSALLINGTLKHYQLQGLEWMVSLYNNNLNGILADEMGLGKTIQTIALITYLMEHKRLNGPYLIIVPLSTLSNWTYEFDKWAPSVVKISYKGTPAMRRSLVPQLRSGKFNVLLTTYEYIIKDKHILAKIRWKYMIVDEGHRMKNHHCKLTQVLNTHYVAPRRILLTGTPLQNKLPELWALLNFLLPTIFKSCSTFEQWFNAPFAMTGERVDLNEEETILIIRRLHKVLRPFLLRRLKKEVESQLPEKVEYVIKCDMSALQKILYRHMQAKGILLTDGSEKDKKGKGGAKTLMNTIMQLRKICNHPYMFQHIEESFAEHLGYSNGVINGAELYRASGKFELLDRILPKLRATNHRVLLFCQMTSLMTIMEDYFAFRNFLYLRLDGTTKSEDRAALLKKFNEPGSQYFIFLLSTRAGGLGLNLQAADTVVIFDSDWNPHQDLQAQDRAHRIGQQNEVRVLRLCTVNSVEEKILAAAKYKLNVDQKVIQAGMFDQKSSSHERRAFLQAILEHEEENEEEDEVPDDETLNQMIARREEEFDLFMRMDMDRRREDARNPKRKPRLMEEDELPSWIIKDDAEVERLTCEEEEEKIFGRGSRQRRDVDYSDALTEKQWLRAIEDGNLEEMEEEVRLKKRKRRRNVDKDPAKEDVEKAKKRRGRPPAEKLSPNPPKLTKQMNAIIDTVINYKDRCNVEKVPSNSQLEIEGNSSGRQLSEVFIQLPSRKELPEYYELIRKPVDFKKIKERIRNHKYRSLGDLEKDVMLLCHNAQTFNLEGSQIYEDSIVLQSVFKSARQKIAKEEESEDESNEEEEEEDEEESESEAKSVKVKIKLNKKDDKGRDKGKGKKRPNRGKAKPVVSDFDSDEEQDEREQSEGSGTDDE
The experiment can be described thus: SMARCA2 protein degradation in NCIH520 cells by In Cell Western (ICW). Type of experiment: cell-based. The settings on record: highest concentration 1 μM; for DC50: H520 cells, overnight incubation (maximum 18 hours), read-out: DC50 (SM2_H520): SMARCA2 degradation potency; for Dmax: NCI-H520, overnight incubation (maximum 18 hours), read-out: Dmax % (SM2_H520): maximum SMARCA2 degradation within the concentrations tested. As to the method:
(§1) Compounds were dissolved in DMSO to make 10 mM stock and 3-fold series dilutions were further conducted keeping the highest concentration 10 μM. NCIH11693 and NCIH1520 cells were maintained in PRMI 1640 medium (Corning Cellgro, Catalog #: 10-040-CV) supplemented with 10% v/v FBS (GE Healthcare, Catalog #: SH30910.03) by splitting 1:3 twice a week.
(§2) SMACRA2 and SMARCA4 Protein Degradation DC50 Values in NCIH1693 and NCIH520 Cells by in Cell Western (ICW) Analysis.
(§3) Cells were trypsinized and 30 thousand cells/well were seeded into 384-well plates and were allowed to grow for 1-2 hours at 37° C. Eight-point, 3-fold serial dilutions of compounds from 0.5 mM stocks were added to the cells (using digital Dispenser D300-Tecan, keeping highest concentration 1 μM and normalizing with DMSO at the highest dispensed volume). Plates were incubated at 37° C. for overnight (maximum 18 hours). Cells incubated with DMSO was used as a vehicle control.
(§4) To perform In Cell Western, medium was removed from all the wells leaving cells attached to the surface. After removing the medium, cells were fixed within the plates with 40 μL of 4% formaldehyde by incubating at room temperature for 30 minutes, and then permeabilized with wash buffer (1×PBS with 0.1% Triton X-100) by washing the plate 5 times with 50 μL/well. Before labeling with primary antibodies, cells were blocked with 30 μL/well of blocking buffer (Licor Odyssey blocking buffer PBS #927-40000) for 30 minutes at room temperature. To measure SMARCA2 or SMARCA4 proteins, cells were labeled with 20 μL/well of anti SMARCA2 or SMACRA4 antibodies (Cell Signaling BRM #11966S 1:800, Cell Signaling BRG #49360S 1:800) diluted in Li-Cor Odyssey blocking buffer-PBS #927-40000, followed by overnight incubation at 4° C.
(§5) The next day, plates were washed 5×5 minutes with 50 μL/well of washing buffer to remove all the excess primary antibody and then 20 μL from a mixture of secondary antibody and fluorescent DNA specific dye (Goat anti rabbit 1:500 IRDye-800CW #92632211, and DRAQ5™ 1:2000-#ab108410) was added to each well. Plates were incubated for 1 hour at room temperature with gentle rocking. Cells were washed 5 times with 50 μL/well wash buffer, followed by one last wash with DI water, followed by 10 mins drying at 37° C. oven before scanning. Plates were scanned using Li-Cor Odyssey CLx imaging system to acquire integrated intensities at 700 nm and 800 nm. SMARCA signals were normalized to total cell count and then these normalized values were used to calculate the percent degradation relative to DMSO control and maximum inhibition. DC50s were calculated by using the GraphPad Prism4 program based on sigmoidal dose response equation ([Inhibitor] vs. normalized response-Variable slope).
(§6) In Table 36, the DC50/Dmax% (SM2_H520) refers to SMARCA2 degradation potency/maximum SMARCA2 degradation within the concentrations in H520 cells and DC50/Dmax% (SM4_H520) refers to SMARCA4 degradation potency/maximum SMARCA4 degradation within the concentrations tested in H520 cells.

Experiment [3] deals with T2, SMARCA4 (Homo sapiens, UniProt P51532).
T2 construct: endogenous in cells; host or cells: NCI-H520 (given as NCIH520 / NCIH1520 / H520)
T2 sequence (P51532 whole entry): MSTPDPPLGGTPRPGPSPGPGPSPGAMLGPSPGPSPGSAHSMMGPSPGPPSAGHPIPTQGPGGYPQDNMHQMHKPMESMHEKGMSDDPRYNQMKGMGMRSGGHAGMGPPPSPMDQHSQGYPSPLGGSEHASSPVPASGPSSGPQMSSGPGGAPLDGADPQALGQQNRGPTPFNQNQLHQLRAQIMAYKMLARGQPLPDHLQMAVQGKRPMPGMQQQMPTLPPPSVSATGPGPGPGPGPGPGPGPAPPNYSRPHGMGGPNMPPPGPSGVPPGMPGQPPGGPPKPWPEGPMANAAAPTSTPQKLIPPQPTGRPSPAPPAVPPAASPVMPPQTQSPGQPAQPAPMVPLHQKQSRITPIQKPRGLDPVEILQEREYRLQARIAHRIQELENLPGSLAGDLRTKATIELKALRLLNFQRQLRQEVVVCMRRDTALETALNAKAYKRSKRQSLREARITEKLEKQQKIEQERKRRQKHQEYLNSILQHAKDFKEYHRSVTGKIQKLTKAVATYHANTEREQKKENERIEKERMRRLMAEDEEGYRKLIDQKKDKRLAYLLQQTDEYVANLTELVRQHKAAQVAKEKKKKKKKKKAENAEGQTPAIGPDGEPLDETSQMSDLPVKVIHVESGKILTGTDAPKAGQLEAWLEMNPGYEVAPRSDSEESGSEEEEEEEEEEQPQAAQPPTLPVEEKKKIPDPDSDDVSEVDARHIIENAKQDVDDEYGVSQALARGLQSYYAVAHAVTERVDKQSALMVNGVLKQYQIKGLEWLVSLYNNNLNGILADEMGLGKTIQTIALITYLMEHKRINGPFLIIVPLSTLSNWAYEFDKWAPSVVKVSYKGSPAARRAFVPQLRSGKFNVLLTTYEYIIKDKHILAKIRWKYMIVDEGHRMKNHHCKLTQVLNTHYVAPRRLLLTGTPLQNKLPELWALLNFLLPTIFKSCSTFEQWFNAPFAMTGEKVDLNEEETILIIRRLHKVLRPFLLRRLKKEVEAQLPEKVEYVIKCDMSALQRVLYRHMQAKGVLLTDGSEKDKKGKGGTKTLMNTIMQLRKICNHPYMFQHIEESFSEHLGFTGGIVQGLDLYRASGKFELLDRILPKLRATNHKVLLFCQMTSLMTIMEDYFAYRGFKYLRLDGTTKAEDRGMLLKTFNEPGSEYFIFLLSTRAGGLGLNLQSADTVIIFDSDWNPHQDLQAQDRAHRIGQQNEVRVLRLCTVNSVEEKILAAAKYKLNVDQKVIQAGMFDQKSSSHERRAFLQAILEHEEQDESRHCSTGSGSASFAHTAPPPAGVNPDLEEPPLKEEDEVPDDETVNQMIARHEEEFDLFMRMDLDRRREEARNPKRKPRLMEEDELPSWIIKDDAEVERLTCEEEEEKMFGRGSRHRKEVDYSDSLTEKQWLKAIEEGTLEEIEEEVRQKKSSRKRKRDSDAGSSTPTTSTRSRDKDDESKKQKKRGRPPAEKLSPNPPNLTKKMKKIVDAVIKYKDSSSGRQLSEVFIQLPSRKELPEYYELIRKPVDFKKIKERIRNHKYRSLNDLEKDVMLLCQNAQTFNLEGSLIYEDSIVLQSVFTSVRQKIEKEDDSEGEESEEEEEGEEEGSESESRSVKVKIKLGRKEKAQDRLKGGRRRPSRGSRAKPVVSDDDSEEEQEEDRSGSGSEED
Kind of experiment: SMARCA4 protein degradation in NCIH520 cells by In Cell Western (ICW). It counts as cell-based. The settings on record: highest concentration 1 μM; for DC50: H520 cells, overnight incubation (maximum 18 hours), read-out: DC50 (SM4_H520): SMARCA4 degradation potency; for Dmax: NCI-H520, overnight incubation (maximum 18 hours), read-out: Dmax % (SM4_H520): maximum SMARCA4 degradation within the concentrations tested. As to the method: as §1, §2, §3, §4, §5, §6

In general, DC50 refers to the concentration giving 50% degradation.

For `O=C(/C=C/N1C[C@H]2C[C@@H]1CN2c1ccccn1)c1ccccc1O` [PFI-3], the “effects on cell proliferation inhibition” value in experiment [1] is “none to minor effects”.
Turning to `O=C1CCC(n2c3ccc(CCCN4CCC(N5CC(N6CCN7c8cc(-c9ccccc9O)nnc8NC[C@H]7C6)C5)CC4)cc3c3cccnc32)C(=O)N1` (stereo partly drawn) [Example 21, 3-(6-(3-(4-(3-((S)-2-(2-hydroxyphenyl)-5,6,6a,7,9,10-hexahydro-8H-pyrazino [1′,2′:4,5]pyrazino[2,3-c]pyridazin-8-yl)azetidin-1-yl)piperidin-1-yl)propyl)-9H-pyrido[2,3-b]indol-9-yl)piperidine-2,6-dione], in experiment [2], the DC50 was less than 100 nM and the Dmax was more than 75%. For the same molecule, in experiment [3], the 50% degradation concentration (DC50) was less than 100 nM and the Dmax was more than 75%.
Turning to `O=C1CCC(N2C(=O)c3ccc(N4CCC(N5CCC(N6CCN7c8cc(-c9ccccc9O)nnc8NC[C@H]7C6)CC5)C4)cc3C2=O)C(=O)N1` (stereo partly drawn) [Example 13, 2-(2,6-Dioxopiperidin-3-yl)-5-(3-(4-((S)-2-(2-hydroxyphenyl)-5,6,6a,7,9,10-hexahydro-8H-pyrazino[1′,2′:4,5]pyrazino[2,3-c]pyridazin-8-yl)piperidin-1-yl)pyrrolidin-1-yl) isoindoline-1,3-dione], in experiment [2], the DC50 was less than 100 nM and the Dmax is more than 75%. Besides, in experiment [3], the 50% degradation concentration (DC50) is less than 100 nM and the Dmax is more than 75%.
Regarding `O=C1CCC(N2Cc3cc(CCN4CCC(c5cnc(N6CCN7c8cc(-c9ccccc9O)nnc8NC[C@@H]7C6)nc5)CC4)ccc3C2=O)C(=O)N1` (stereo partly drawn) [Example 4, 3-(5-(2-(4-(2-((R)-2-(2-hydroxyphenyl)-5,6,6a,7,9,10-hexahydro-8H-pyrazino[1′,2′:4,5]pyrazino[2,3-c]pyridazin-8-yl)pyrimidin-5-yl)piperidin-1-yl)ethyl)-1-oxoisoindolin-2-yl)piperidine-2,6-dione], in experiment [2], the DC50 is less than 100 nM and the Dmax was more than 75%. Also, in experiment [3], the DC50 is less than 100 nM and the Dmax was more than 75%.
